Target: T1, RIP1 (Homo sapiens, UniProt Q13546)
T1 sequence (Q13546 1-671): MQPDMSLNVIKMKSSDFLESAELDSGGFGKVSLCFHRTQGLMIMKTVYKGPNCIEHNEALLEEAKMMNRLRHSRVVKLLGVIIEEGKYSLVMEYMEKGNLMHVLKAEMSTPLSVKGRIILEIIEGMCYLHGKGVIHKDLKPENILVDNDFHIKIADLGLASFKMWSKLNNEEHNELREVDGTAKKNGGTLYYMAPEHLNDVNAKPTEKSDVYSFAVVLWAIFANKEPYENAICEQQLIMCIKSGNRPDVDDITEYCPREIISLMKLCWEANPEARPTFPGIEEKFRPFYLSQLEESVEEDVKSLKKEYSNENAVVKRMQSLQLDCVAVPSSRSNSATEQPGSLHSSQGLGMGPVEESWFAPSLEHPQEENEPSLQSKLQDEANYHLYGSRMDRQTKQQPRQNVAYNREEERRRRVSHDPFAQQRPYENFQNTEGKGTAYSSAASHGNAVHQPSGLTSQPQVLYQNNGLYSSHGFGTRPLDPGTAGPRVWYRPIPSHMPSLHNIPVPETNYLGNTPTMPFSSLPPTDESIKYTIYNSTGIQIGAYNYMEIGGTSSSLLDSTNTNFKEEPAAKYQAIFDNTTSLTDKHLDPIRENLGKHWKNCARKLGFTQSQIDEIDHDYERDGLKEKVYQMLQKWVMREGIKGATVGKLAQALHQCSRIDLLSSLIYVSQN
Assay: Cellular RIP1 inhibitory activity: HT-29 necroptosis (TNFα/SMAC mimetic/zVAD-FMK) CellTiter-Glo viability assay
Type: cell-based
Conditions: HT-29 cells, TNF-α 10 ng/ml + SMAC mimetic 6 μM + zVAD-FMK 10 μM, 20 hours, geometric mean, read-out: EC50 Values of in vitro Cellular RIP1 Inhibitory Activity
Experimental: Compounds 1-99 (denoted as Cmpd Nos. 1 through 99 in Table 2 below) of the disclosure were tested for binding and cellular RIP1 inhibitory activity following the experimental procedures described below. Cell Seeding • 1. HT-29 cells were checked every day to make sure that they were healthy and growing as expected. They were subjected to sub-culturing when they were approximately 80% confluent. • 2. The culture medium, McCOY's 5 A medium (Gibco, Cat No. 16600-082) with 10% fetal bovine serum or FBS (Gibco, Cat No. 10099-141C), was pre-warmed in a 37° C. water bath for at least 30 min. • 3. When the cells had reached a desired level of confluency of 80% in a T75 flask, the medium was aspirated, and the cells were washed with warm phosphate buffered saline or PBS two times. • 4. 2-3 ml fresh warm trypsin (Gibco, Cat No. 25200-056) solution was added to the washed cells. The flask with the cells was transferred to a 37° C. incubator. • 5. After 5 minutes, the side of the flask was tapped, and the flask was examined under a microscope for detachment of the cells to the flask. If necessary, the cells were kept in the incubator for an additional 5-10 minutes, with occasional tapping, until lifting was complete. • 6. The trypsin reaction was neutralized by transferring 6-9 ml cell culture medium to sterile 15 ml conical tubes, and by centrifuging the cell culture at 300×g for 7 minutes to pellet the cells (supernatant decanted). • 7. The cells were resuspended in fresh cell culture medium and the cell counting was performed using a hemocytometer. • 8. 100 μl of the resuspended cell culture medium containing ˜5,000 cells were transferred into each well of the sterile 96-well cell culture plate (Corning 3903) and cultured overnight at 37° C. with 5% CO2. Compound Titration and Treatment • 1. All test compounds were dissolved in DMSO (Dimethyl sulfoxide) to create a 20 mM stock. • 2. 3 μl of each compound 20 mM stock was mixed with 27 μl DMSO, and the compound solution was further diluted at a titration ratio of 1:3 (20 μl compound solution+40 μl DMSO) till the 10 points end. • 3. All culture medium was removed from assay plates filled with HT-29 cell cultures. […] 0.5 μL of the diluted compound solution was added to the corresponding 96-well assay plates. • 5. The assay plates were incubated for 20 hours at 37° C. with 5% CO2. Cell Viability Detection • 1. The CellTiter-Glo® Luminescent Cell Viability Assay was employed to detect the ATP levels of viable HT-29 cells. • 2. The CellTiter-Glo® buffer and the lyophilized substrate were equilibriated to room temperature prior to use. • 3. The CellTiter-Glo® substrate was resuspended with CellTiter-Glo® buffer, then mixed by gently vortexing to obtain a homogeneous solution. • 4. 20 μl the enzyme/substrate mixture was transferred by multi-channel pipetting into 96-well assay plates. • 5. The assay plates were placed on an orbital shaker and the contents were shaken for 3 minutes to induce cell lysis. • 6. The assay plates were incubated at room temperature for 10 minutes to stabilize the luminescent signal. • 7. The luminescence signals were read and recorded with EnVision. • 8. The geometric mean EC50 values were calculated from 10 points response dose with duplicates. In Table 2, activity is provided as follows: +++=0.1 nM≤EC50<100 nM; ++=100 nM≤EC50<1000 nM; +=1000 nM≤EC50<10000 nM.

Q: Which EC50 does the source give for `Cc1nc(C)n(-c2nc(N3CCC(C(=O)N(O)Cc4cc(F)cc(F)c4)CC3)ncc2F)n1` [Compound 1, N-(3,5-difluorobenzyl)-1-(4-(3,5-dimethyl-1H-1,2,4-triazol-1-yl)-5-fluoropyrimidin-2-yl)-N-hydroxypiperidine-4-carboxamide] here?
A: Its EC50 is 0.1 to 100 nM.

Q: For `Cc1nc(C)n(-c2nc(N3CCC(C(=O)NCc4cc(F)cc(F)c4)CC3)ncc2F)n1` [Compound 2, N-(3,5-difluorobenzyl)-1-(4-(3,5-dimethyl-1H-1,2,4-triazol-1-yl)-5-fluoropyrimidin-2-yl)piperidine-4-carboxamide], which EC50 is on record?
A: Its EC50 is 0.1 to 100 nM.

Q: For `Cc1cnn(C)c1-c1nc(N2CCC(C(=O)N(O)Cc3cnn(C)c3)CC2)ncc1F` [Compound 3, 1-(4-(1,4-dimethyl-1H-pyrazol-5-yl)-5-fluoropyrimidin-2-yl)-N-hydroxy-N-((1-methyl-1H-pyrazol-4-yl)methyl)piperidine-4-carboxamide], which EC50 is on record?
A: Its EC50 is 0.1 to 100 nM.

Q: For `Cc1cnn(C)c1-c1nc(N2CCC(C(=O)N(O)Cc3cc(F)cc(F)c3)CC2)ncc1F` [Compound 4, N-(3,5-difluorobenzyl)-1-(4-(1,4-dimethyl-1H-pyrazol-5-yl)-5-fluoropyrimidin-2-yl)-N-hydroxypiperidine-4-carboxamide], which EC50 is on record?
A: The EC50 was 0.1 to 100 nM.

Q: For `Cc1nc(C)n(-c2nc(N3CCC(C(=O)NCc4cc(F)cc(F)c4F)CC3)ncc2F)n1` [Compound 5, 1-(4-(3,5-dimethyl-1H-1,2,4-triazol-1-yl)-5-fluoropyrimidin-2-yl)-N-(2,3,5-trifluorobenzyl)piperidine-4-carboxamide], which EC50 is on record?
A: Its EC50 is 0.1 to 100 nM.

Q: How did the EC50 turn out when `Cc1cnn(C)c1-c1nc(N2CCC(C(=O)NCc3cc(F)cc(F)c3F)CC2)ncc1F` [Compound 6, 1-(4-(1,4-dimethyl-1H-pyrazol-5-yl)-5-fluoropyrimidin-2-yl)-N-(2,3,5-trifluorobenzyl)piperidine-4-carboxamide] was run?
A: The EC50 was 0.1 to 100 nM.

Q: For `Cc1nc(C)n(-c2nc(N3CCC(C(=O)N(O)Cc4ccccn4)CC3)ncc2F)n1` [Compound 7, 1-(4-(3,5-dimethyl-1H-1,2,4-triazol-1-yl)-5-fluoropyrimidin-2-yl)-N-h ydroxy-N-(pyridin-2-ylmethyl)piperidine-4-carboxamide], which EC50 is on record?
A: The EC50 was 100 to 1000 nM.

Q: `Cc1cnn(C)c1-c1nc(N2CCC(C(=O)N(O)Cc3ncccc3F)CC2)ncc1F` [Compound 8, 1-(4-(1,4-dimethyl-1H-pyrazol-5-yl)-5-fluoropyrimidin-2-yl)-N-((3-fluoropyridin-2-yl)methyl)-N-hydroxypiperidine-4-carboxamide] was tested. Which EC50 did it give?
A: The EC50 was 0.1 to 100 nM.

Q: How did the EC50 turn out when `Cc1cnn(C)c1-c1nc(N2CCC(C(=O)N(O)Cc3ncccc3Cl)CC2)ncc1F` [Compound 9, N-((3-chloropyridin-2-yl)methyl)-1-(4-(1,4-dimethyl-1H-pyrazol-5-yl)-5-fluoropyrimidin-2-yl)-N-hydroxypiperidine-4-carboxamide] was run?
A: Its EC50 is 0.1 to 100 nM.

Q: `Cc1cnn(C)c1-c1nc(N2CCC(C(=O)N(O)Cc3ccc(F)cn3)CC2)ncc1F` [Compound 10, 1-(4-(1,4-dimethyl-1H-pyrazol-5-yl)-5-fluoropyrimidin-2-yl)-N-((5-fluoropyridin-2-yl)methyl)-N-hydroxypiperidine-4-carboxamide] was tested. Which EC50 did it give?
A: Its EC50 is 0.1 to 100 nM.

Q: Which EC50 does the source give for `Cc1cnn(C)c1-c1nc(N2CCC(C(=O)N(O)Cc3ccncc3F)CC2)ncc1F` [Compound 11, 1-(4-(1,4-dimethyl-1H-pyrazol-5-yl)-5-fluoropyrimidin-2-yl)-N-((3-fluoropyridin-4-yl)methyl)-N-hydroxypiperidine-4-carboxamide] here?
A: The EC50 was 0.1 to 100 nM.

Q: `Cc1cnn(C)c1-c1nc(N2CCC(C(=O)N(O)Cc3nccs3)CC2)ncc1F` [Compound 12, 1-(4-(1,4-dimethyl-1H-pyrazol-5-yl)-5-fluoropyrimidin-2-yl)-N-hydroxy-N-(thiazol-2-ylmethyl)piperidine-4-carboxamide] was tested. Which EC50 did it give?
A: Its EC50 is 0.1 to 100 nM.

Q: Which EC50 does the source give for `Cc1nc(C)n(-c2nc(N3CCC(C(=O)N(O)Cc4ncccc4F)CC3)ncc2F)n1` [Compound 13, 1-(4-(3,5-dimethyl-1H-1,2,4-triazol-1-yl)-5-fluoropyrimidin-2-yl)-N-((3-fluoropyridin-2-yl)methyl)-N-hydroxypiperidine-4-carboxamide] here?
A: The EC50 was 0.1 to 100 nM.

Q: How did the EC50 turn out when `Cc1nc(C)n(-c2nc(N3CCC(F)(C(=O)N(O)Cc4cc(F)cc(F)c4)CC3)ncc2F)n1` [Compound 14, N-(3,5-difluorobenzyl)-1-(4-(3,5-dimethyl-1H-1,2,4-triazol-1-yl)-5-fluoropyrimidin-2-yl)-4-fluoro-N-hydroxypiperidine-4-carboxamide] was run?
A: Its EC50 is 0.1 to 100 nM.

Q: How did the EC50 turn out when `Cn1ncnc1-c1nc(N2CCC(C(=O)N(O)Cc3cc(F)cc(F)c3)CC2)ncc1F` [Compound 15, N-(3,5-difluorobenzyl)-1-(5-fluoro-4-(1-methyl-1H-1,2,4-triazol-5-yl)pyrimidin-2-yl)-N-hydroxypiperidine-4-carboxamide] was run?
A: The EC50 was 0.1 to 100 nM.

Q: How did the EC50 turn out when `Cc1cnn(C)c1-c1nc(N2CCC(C(=O)N(O)Cc3cncs3)CC2)ncc1F` [Compound 16, 1-(4-(1,4-dimethyl-1H-pyrazol-5-yl)-5-fluoropyrimidin-2-yl)-N-hydroxy-N-(thiazol-5-ylmethyl)piperidine-4-carboxamide] was run?
A: Its EC50 is 0.1 to 100 nM.

Q: Which EC50 does the source give for `Cc1cnn(C)c1-c1nc(N2CCC(F)(C(=O)N(O)Cc3cc(F)cc(F)c3)CC2)ncc1F` [Compound 17, N-(3,5-difluorobenzyl)-1-(4-(1,4-dimethyl-1H-pyrazol-5-yl)-5-fluoropyrimidin-2-yl)-4-fluoro-N-hydroxypiperidine-4-carboxamide] here?
A: Its EC50 is 0.1 to 100 nM.

Q: With `Cn1ncnc1-c1nc(N2CCC(C)(C(=O)N(O)Cc3cc(F)cc(F)c3)CC2)ncc1F` [Compound 18, N-(3,5-difluorobenzyl)-1-(5-fluoro-4-(1-methyl-1H-1,2,4-triazol-5-yl)pyrimidin-2-yl)-N-hydroxy-4-methylpiperidine-4-carboxamide] as the compound, how does the EC50 read?
A: The EC50 was 0.1 to 100 nM.

Q: How did the EC50 turn out when `Cn1ncnc1-c1nc(N2CCC(F)(C(=O)N(O)Cc3cc(F)cc(F)c3)CC2)ncc1F` [Compound 19, N-(3,5-difluorobenzyl)-4-fluoro-1-(5-fluoro-4-(1-methyl-1H-1,2,4-triazol-5-yl)pyrimidin-2-yl)-N-hydroxypiperidine-4-carboxamide] was run?
A: The EC50 was 0.1 to 100 nM.

Q: How did the EC50 turn out when `Cc1cnn(C)c1-c1nc(N2CCC(C(=O)N(O)Cc3ccnc(F)c3)CC2)ncc1F` [Compound 20, 1-(4-(1,4-dimethyl-1H-pyrazol-5-yl)-5-fluoropyrimidin-2-yl)-N-((2-fluoropyridin-4-yl)methyl)-N-hydroxypiperidine-4-carboxamide] was run?
A: Its EC50 is 0.1 to 100 nM.

Q: For `Cn1ncnc1-c1nc(N2CCC(C(=O)NCc3cc(F)cc(F)c3F)CC2)ncc1F` [Compound 21, 1-(5-fluoro-4-(1-methyl-1H-1,2,4-triazol-5-yl)pyrimidin-2-yl)-N-(2,3,5-trifluorobenzyl)piperidine-4-carboxamide], which EC50 is on record?
A: The EC50 was 0.1 to 100 nM.

Q: Which EC50 does the source give for `Cc1nc(C)c(CNC(=O)C2CCN(c3ncc(F)c(-c4c(C)cnn4C)n3)CC2)s1` [Compound 22, 1-(4-(1,4-dimethyl-1H-pyrazol-5-yl)-5-fluoropyrimidin-2-yl)-N-((2,4-dimethylthiazol-5-yl)methyl)piperidine-4-carboxamide] here?
A: Its EC50 is 100 to 1000 nM.

— US20240217963A1, “RECEPTOR-INTERACTING PROTEIN 1 INHIBITORS, PREPARATIONS, AND USES THEREOF” (SIRONAX LTD., priority 2021, published 2024)
